These results are taken from PubChem BioAssay AID651897 (Broad Institute, 2012).

The assay has as its target cruzain (cruzipain), Trypanosoma cruzi. Briefly: cruzain protease inhibitors, dose response, biochemical, dry powder (AID 651897). As to conditions: purified recombinant cruzain, Z-Phe-Arg-AMC fluorescence.

Regarding `C[C@H]1CN([C@@H](C)CO)C(=O)c2cccc(NC(=O)c3ccncc3)c2O[C@@H]1CN(C)Cc1ccc(Oc2ccccc2)cc1`, the half-inhibitory concentration (IC50) is 13.2 µM.

By IC50 is commonly meant the point on the concentration scale where inhibition reaches its midpoint.
